Among the data in PubChem BioAssay (NCI) are GI50 and TGI values, retold here.

Holding throughout (assay): DTP human tumour cell line panel, 48 h
Experiment [1] relates to SF-295 CNS.
Experiment [2] concerns OVCAR-4 ovarian.
The test system of experiment [3] is NCI-H23 lung.
For experiment [4], the system named is SR leukemia.
Experiment [5] relates to LOX IMVI melanoma.
Experiment [6] has as its system SK-MEL-2 melanoma.
Experiment [7] concerns CAKI-1 renal.
In experiment [8] the test system is COLO 205 colon.
For experiment [9], the system named is NCI-H522 lung.
The test system of experiment [10] is RXF 393 renal.

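Briefly, cells in 96-well plates were exposed to five compound concentrations for 48 h, and endpoints were estimated by linear interpolation. GI50 is the concentration that inhibits growth by half. TGI: concentration producing complete growth inhibition.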 A value given as a limit tells only on which side of the number the result lay.

Broadly, the GI50 is the concentration at which growth is held to half of that of the control. One may read the TGI as the concentration giving total growth inhibition. Higher therefore signals less potent growth arrest. For the molecule `COc1cc2ncn(-c3cc(OCCc4ccccc4)c(C(N)=O)s3)c2cc1OC`, the GI50 in [1] was over 25 µM; in experiment [2], over 25 µM; in experiment [3], over 25 µM; in experiment [4], 13.6 µM; in [5] it was over 25 µM; in [6] it was over 25 µM. Moreover, the GI50 is over 25 µM in experiment [7], 24.4 µM in experiment [8], over 18.1 µM in experiment [9] and 9.53 µM in experiment [10]. The TGI in experiment [1], in experiment [2], in experiment [3], in [4], in experiment [5] and in experiment [6] was over 25 µM each time. For the same molecule, the TGI in [7], in [8], in experiment [9] and in experiment [10] was over 25 µM each time.
Take `COc1ccc2c(O)cc3c(c2c1)[C@H](CCl)CN3C(=O)c1cc2cc(NC(=O)CCN3CCOCC3)ccc2[se]1`: the GI50 in experiment [1], in experiment [2], in experiment [3], in [4], in experiment [5] and in experiment [6] was under 0.001 µM each time. The GI50 in [7], in [8], in experiment [9] and in experiment [10] was under 0.001 µM throughout. The TGI was under 0.001 µM in experiment [1]; 0.783 µM in [2]; 0.00121 µM in experiment [3]; over 10 µM in experiment [4]; 0.0101 µM in [5]; under 0.001 µM in experiment [6]. For the same molecule, the TGI was under 0.001 µM in [7], over 10 µM in experiment [8], 0.0298 µM in experiment [9] and under 0.001 µM in [10].
As to `CN(C)C(=S)/N=c1\ss/c(=N\C(=S)N(C)C)n1-c1ccc(Cl)c(Cl)c1`, the TGI in [1], in experiment [2], in experiment [3], in experiment [4], in experiment [5] and in experiment [6] was over 100 µM each time. The TGI in [7], in experiment [8], in experiment [9] and in [10] was over 100 µM throughout.
Turning to `Cc1cc2c(cc1Cl)SC(=Nc1ccc(Cl)cc1)N(S(=O)(=O)c1ccccc1)S2(=O)=O`, the GI50 in [1] was 13.2 µM; in experiment [2], 11 µM; in [3], 1.55 µM; in [4], 0.342 µM; in experiment [5] it was 1.58 µM; in experiment [6] it was 11.8 µM. Moreover, the GI50 was 5.37 µM in [7], 2.89 µM in experiment [8], 12.4 µM in experiment [9] and 17.2 µM in experiment [10]. The concentration for total growth inhibition (TGI) in experiment [1] is 32.6 µM; in experiment [2], 64.3 µM; in experiment [3] it was 5.96 µM; in experiment [4], over 100 µM; in [5], 7.18 µM; in experiment [6] it was 27.6 µM. Moreover, the TGI in [7] was 23.4 µM; in experiment [8] it was over 100 µM; in experiment [9], 52.8 µM; in [10], 48.2 µM.
Regarding `COC(=O)/C(C=O)=C/Sc1ccccc1`, the TGI is over 100 µM in [1]; over 100 µM in [2]; over 100 µM in experiment [3]; over 100 µM in [4]; 23 µM in [5]; 91.8 µM in [6]. The TGI in experiment [7] was 62 µM; in [8], 42.9 µM; in experiment [9], 24 µM; in experiment [10] it was 51.7 µM.
For the molecule `CC(=O)c1sc(-c2nc(C)c(C(=O)/C=C\c3ccc(/C=C\C(=O)c4sc(-c5nc(C)c(C(C)=O)s5)nc4C)cc3)s2)nc1C`, the total growth inhibition concentration (TGI) in experiment [1], in experiment [2], in experiment [3], in experiment [4], in experiment [5] and in experiment [6] was over 100 µM each time. Moreover, the TGI in experiment [7], in [8], in experiment [9] and in [10] was over 100 µM in each case.
Turning to `COC(=O)CCC(=O)CC1CC(=O)C2CCCN12` (centres undefined), the TGI in [1], in experiment [2], in [3], in [4], in experiment [5] and in experiment [6] was over 100 µM in each case. The TGI in experiment [7], in experiment [8], in experiment [9] and in experiment [10] was over 100 µM in each case.
`COc1cc2c3c(n(CCCN(C)C)c(=O)c2cc1OC)-c1ccccc1C3=O`: the GI50 was 1.26 µM in [1]; 6.68 µM in [2]; 10.6 µM in experiment [3]; 0.184 µM in experiment [4]; 4.66 µM in [5]; over 100 µM in experiment [6]. For the same molecule, the GI50 in experiment [7] was 12.7 µM; in [8], 1.04 µM; in experiment [9], 5.59 µM; in experiment [10], 6.68 µM. For the same molecule, the TGI is 53.5 µM in experiment [2]; over 72 µM in [3]; 1.82 µM in experiment [4]; 19.2 µM in [5]; over 100 µM in [6]; over 77.9 µM in experiment [7]. The TGI in [8] is over 100 µM; in experiment [9] it was over 100 µM; in [10] it was 24.7 µM.
On to `Cc1cn2c(/C=C3\C(=O)N(C)c4ccc(O)cc43)c(C)nc2s1`, for which the GI50 in experiment [1] is 2.82 µM; in experiment [2] it was 20.5 µM; in experiment [3] it was 11.9 µM; in [4] it was 1.98 µM; in [5], 7.51 µM; in experiment [6], 3.33 µM. The GI50 in [7] is 5.13 µM; in [8] it was 4.29 µM; in experiment [9], 3.02 µM; in [10] it was 36 µM. The TGI is 23.6 µM in experiment [1]; over 100 µM in experiment [2]; over 100 µM in [3]; 9.91 µM in experiment [4]; over 100 µM in [5]; 18.4 µM in experiment [6]. Also, the TGI in [7] is 45.8 µM; in experiment [8], 27.5 µM; in experiment [9] it was 13.7 µM; in [10], over 100 µM.
For the molecule `COC(=O)/C(C#N)=C1\CCC(O)N1` (centres undefined), the TGI in experiment [1], in [2], in experiment [3], in experiment [4], in [5] and in experiment [6] was over 100 µM in each case. The TGI in [7], in experiment [8], in experiment [9] and in [10] was over 100 µM in each case.
Regarding `CC1=NN(C(=O)CC(=O)N(C(=O)c2ccccc2Cl)c2ccc(C)cc2)C(=O)C1N=Nc1ccc([N+](=O)[O-])cc1` (centres undefined), the TGI in experiment [1] was over 100 µM; in experiment [2] it was over 100 µM; in [3], over 100 µM; in [4] it was over 100 µM; in experiment [5], over 57.4 µM; in [6], over 100 µM. Further, the TGI was over 100 µM in experiment [7], over 58 µM in [8], over 100 µM in experiment [9] and 77.5 µM in experiment [10].
`O=C(/C=C/c1cc(CN2CCOCC2)c(O)c2ncccc12)c1cc(CN2CCOCC2)c(O)c2ncccc12`: the GI50 is 0.0529 µM in experiment [1]; 0.0804 µM in [2]; 0.0586 µM in experiment [3]; 0.0463 µM in experiment [4]; 0.0394 µM in experiment [5]; 0.0637 µM in experiment [6]. In addition, the GI50 was 0.0842 µM in [7], 0.0842 µM in experiment [8], 0.0208 µM in [9] and 0.14 µM in experiment [10]. Further, the TGI in experiment [1] is over 36.4 µM; in experiment [2], over 100 µM; in [3], over 100 µM; in experiment [4] it was over 100 µM; in [5], over 100 µM; in [6] it was 4.99 µM. In addition, the TGI was over 100 µM in experiment [7], over 100 µM in [8], over 53.7 µM in experiment [9] and 14.3 µM in experiment [10].
Regarding `N#C/C(=C/N1CCN(C(=O)c2ccco2)C1=S)C(=O)c1ccccc1`, the GI50 in experiment [1] was 43.6 µM; in [2], 29.8 µM; in experiment [3] it was 15.2 µM; in [4], 2.84 µM; in [5] it was 17.9 µM; in experiment [6] it was 3.68 µM. Moreover, the GI50 in [7] was 12.5 µM; in experiment [8] it was 23.2 µM; in experiment [9], 3.74 µM; in experiment [10], 4.09 µM. Besides, the TGI in experiment [1] was over 100 µM; in [2], 93.2 µM; in [3], 43.5 µM; in experiment [4] it was over 100 µM; in experiment [5] it was over 100 µM; in experiment [6] it was 15.8 µM. Besides, the TGI in [7] was 44.4 µM; in [8], over 100 µM; in experiment [9] it was 12.3 µM; in [10], 19.4 µM.
On to `Nc1nc(SN=Nc2ccc(S(N)(=O)=O)cc2)c2[nH]cnc2n1`, for which the GI50 is 0.363 µM in experiment [1]; 0.581 µM in experiment [2]; 0.623 µM in [3]; 0.186 µM in experiment [4]; 0.219 µM in experiment [5]; 1.24 µM in experiment [6]. Further, the GI50 was 0.332 µM in experiment [7], 1.42 µM in experiment [8], 1.08 µM in experiment [9] and 0.394 µM in experiment [10]. The TGI is over 100 µM in experiment [1]; over 51.1 µM in experiment [2]; over 100 µM in [3]; over 100 µM in experiment [4]; 12.6 µM in experiment [5]; over 100 µM in [6]. In addition, the TGI in experiment [7] is 6.57 µM; in [8], 3.6 µM; in experiment [9], 43.1 µM; in [10], 5.52 µM.
In the case of `COc1ccc(-c2oc3cc(O)c(OC)c(O)c3c(=O)c2OC)cc1O`, the GI50 in experiment [1] is 0.3 µM; in experiment [2] it was 1.26 µM; in experiment [3] it was 0.443 µM; in [4] it was 0.039 µM; in experiment [5] it was 0.0766 µM; in experiment [6] it was 0.536 µM. Besides, the GI50 in [7] was 2.38 µM; in [8], 5.85 µM; in experiment [9] it was 0.0589 µM; in experiment [10], 0.171 µM. In addition, the TGI in experiment [1] is 2.04 µM; in experiment [2], over 100 µM; in experiment [3], over 100 µM; in [4], over 100 µM; in experiment [5] it was over 100 µM; in [6] it was over 100 µM. In addition, the TGI in experiment [7] was 28.3 µM; in [8], 28.8 µM; in [9], 7.87 µM; in experiment [10], over 100 µM.
On to `N=C(N)SCc1cccc(-c2nc3ccccc3c(=O)o2)c1`, for which the TGI in experiment [1], in experiment [2], in [3], in experiment [4], in [5] and in experiment [6] was over 100 µM in each case. Also, the TGI in experiment [7], in [8], in experiment [9] and in [10] was over 100 µM throughout.
Regarding `COc1cc2ccc3c4cc(OC)c(OC(C)C)cc4cnc3c2cc1OC`, the TGI in [1], in [2], in experiment [3], in experiment [4], in experiment [5] and in experiment [6] was over 100 µM throughout. Moreover, the TGI in experiment [7], in experiment [8], in experiment [9] and in experiment [10] was over 100 µM each time.
Take `O=C1c2ccc3c4ccccc4n(Cc4ccccc4)c3c2C(=O)N1c1ccccc1`: the TGI in experiment [1] was 28.3 µM; in experiment [2] it was 23.1 µM; in [3] it was 17.6 µM; in experiment [4], 22.1 µM; in [5], 31.4 µM; in experiment [6], 46.5 µM. Further, the TGI came out at 25.1 µM in experiment [7], 11.1 µM in experiment [8], 6.93 µM in [9] and 26.7 µM in [10].
